Experimental data from publication PMC8126888 (RSC Medicinal Chemistry, 2020).
Read-outs that look alike come from different tables or passages of the source.

What was measured:
[1] = system: primary peritoneal mouse macrophages (PMM); conditions: for IC50: read-out: PMM IC50; for SI (vs PMM): PMM IC50 / L. infantum IC50
[2] = system: Leishmania infantum MHOM/MA(BE)/67/ITMAP263 intracellular amastigotes; conditions: for IC50: read-out: L. infantum MHOM/MA(BE)/67/ITMAP263 intracellular amastigotes IC50
[3] = system: MRC-5SV2 cells; experiment: Cytotoxicity assay on MRC-5SV2 cells (resazurin)
[4] = system: L. donovani MHOM/ET/67/L82 intracellular amastigotes; conditions: read-out: L. donovani MHOM/ET/67/L82 intracellular amastigotes IC50
[5] = in vitro; conditions: human, microsomes, pH 7.4, HLM CLint, human liver microsomes
[6] = in vitro; conditions: mouse, microsomes, pH 7.4, MLM CLint, mouse liver microsomes
[7] = physchem; conditions: HPLC, Ascentis Express RP Amide column, pH 7.4, eLogD, experimental
[8] = system: Leishmania infantum MHOM/MA(BE)/67/ITMAP263 intracellular amastigotes; experiment: microbe, parasite or virus in culture; conditions: Macrophage, in Mus musculus
[9] = in vitro; conditions: human
[10] = system: primary peritoneal mouse macrophages (PMM); experiment: cells; conditions: Macrophage, read-out: PMM IC50
[11] = in vitro; conditions: PAMPA
[12] = system: Trypanosoma cruzi, Tulahuen CL2, beta-galactosidase strain; experiment: microbe, parasite or virus in culture; conditions: MRC5, read-out: T. cruzi Tulahuen C4 (LacZ) IC50
[13] = read-out: L. Inf. pIC50, from L. infantum intracellular amastigote IC50 (converted)
[14] = read-out: L. infantum MHOM/MA(BE)/67/ITMAP263 intracellular amastigotes IC50, intracellular amastigotes
[15] = from L. infantum intracellular amastigote IC50

Row | Structure (SMILES) | IC50 [1] | IC50 [2] | CC50 [3] | IC50 [4] | L. Inf. pIC50 [2] | also measured
1 | CCOC(=O)c1c(C)[nH]c(C(=O)Nc2cccc(S(=O)(=O)N3CCOCC3)c2)c1C [Compound Z30001211] | > 32 µM | > 32 µM | 18.1 µM | > 32 µM |  | 
2 | CCCc1c(C(=O)Nc2cccc(S(=O)(=O)NCc3ccco3)c2)[nH]c(C)c1C(C)=O [Compound Z966334826] | > 32 µM | 14.5 µM | 12.8 µM | > 32 µM | 4.84 | 
3 | CCc1c(C(=O)Nc2cc(S(=O)(=O)NC)ccc2C)[nH]c(C)c1C(C)=O [Compound Z792473370] | > 32 µM | 21.5 µM | > 32 µM | > 32 µM | 4.67 | 
4 | CCCCNS(=O)(=O)c1cccc(NC(=O)c2cnc(C)cn2)c1 [Compound Z88583029] | > 32 µM | > 32 µM | > 32 µM | > 32 µM |  | 
5 | CCCCNS(=O)(=O)c1cccc(NC(=O)c2cc3ccccc3[nH]2)c1 [Compound Z88584859] | > 32 µM | 16.2 µM | > 32 µM | 25.4 µM | 4.79 | 
6 | COc1ccc(OC)c(S(=O)(=O)N(Cc2ccccc2)Cc2ccccc2)c1 [Compound Z45508995] | > 32 µM | 1.01 µM | 6.41 µM | 1.19 µM | 6 | 
7 | CCOc1ccc(NC(=O)c2[nH]c(C)c(C(=O)OC)c2C)cc1S(=O)(=O)N1CCCC1 [Compound Z29178369] | > 32 µM | > 32 µM | > 32 µM | > 32 µM |  | 
8 | CC1CCc2ccccc2N1CC(=O)Nc1ccc(Cl)c(S(=O)(=O)N(C)C)c1 (stereo not drawn) [Compound Z46500410] | > 32 µM | > 32 µM | > 32 µM | > 32 µM |  | 
9 | CCCOc1cc(C)c(C)cc1S(=O)(=O)NC1CCCC1 [Compound Z1197866122] |  |  |  | > 32 µM |  | SI (vs PMM) [1]: 1
10 | COC(=O)c1c(C)[nH]c(C(=O)Nc2cccc(S(C)(=O)=O)c2)c1C [Compound Z109929482] | > 32 µM | > 32 µM | > 32 µM | > 32 µM |  | 
11 | Cc1ccc(NC(=O)CN(CC(C)C)c2cccc(O)c2)cc1S(=O)(=O)N(C)C [Compound Z1317978681] | > 32 µM | 16.1 µM | 28.4 µM | 19 µM | 4.79 | 
12 | O=S(=O)(NCc1ccc(F)cc1)c1cccnc1OCc1ccccc1 [DNDI0003369120] |  |  |  |  |  | microsomal CLint at 0.5 μM [5]: 2740 µL/min/mg; microsomal CLint at 0.5 μM [6]: 2750 µL/min/mg; chromatographic logD [7]: 4; IC50 [8, 13]: 8.51 µM; IC50 [8, 14]: 8.42 µM; CC50 at 3 days [9]: 20.2 µM; IC50 [10]: 32 µM; Papp [11]: 12.8 ×10⁻⁶ cm/s; IC50 [12]: 12.7 µM
13 | CCOCCOc1ncccc1S(=O)(=O)NCc1ccc(F)cc1 [DNDI0003369119] |  |  |  |  |  | microsomal CLint at 0.5 μM [5]: 2210 µL/min/mg; microsomal CLint at 0.5 μM [6]: 1530 µL/min/mg; chromatographic logD [7]: 3.2; IC50 [8, 13]: 33.1 µM; IC50 [8, 14]: 33.3 µM; CC50 at 3 days [9]: > 64 µM; IC50 [10]: > 64 µM; Papp [11]: 23.8 ×10⁻⁶ cm/s; IC50 [12]: > 64 µM
14 | O=S(=O)(c1ccccc1Br)N(Cc1ccccc1)C(CO)Cc1ccccc1 (stereo not drawn) [DNDI0003369450] |  |  |  |  |  | microsomal CLint at 0.5 μM [5]: 1560 µL/min/mg; microsomal CLint at 0.5 μM [6]: 2180 µL/min/mg; chromatographic logD [7]: 4.6; IC50 [8, 13]: > 64 µM; IC50 [8, 14]: > 64 µM; CC50 at 3 days [9]: 21.3 µM; IC50 [10]: > 64 µM; Papp [11]: 2.82 ×10⁻⁶ cm/s; IC50 [12]: 5.54 µM
15 | CC1Cc2ccccc2N1CC(=O)Nc1ccc(Cl)c(S(=O)(=O)N(C)C)c1 (stereo not drawn) [Compound Z30956600] | > 32 µM | > 32 µM | > 32 µM | > 32 µM |  | 
16 | COc1ccc(OC)c(S(=O)(=O)N(CCn2nc(C)cc2C)Cc2ccccc2)c1 [DNDI0003367308] |  |  |  |  |  | microsomal CLint at 0.5 μM [5]: 2270 µL/min/mg; microsomal CLint at 0.5 μM [6]: 3100 µL/min/mg; chromatographic logD [7]: 4.1; IC50 [8, 13]: 6.17 µM; IC50 [8, 14]: 6.23 µM; CC50 at 3 days [9]: 51 µM; IC50 [10]: > 64 µM; Papp [11]: 10.9 ×10⁻⁶ cm/s; IC50 [12]: 8.09 µM
17 | O=S(=O)(NCc1cccs1)c1ccc2c(c1)CCCC2 [Compound Z45423905] | > 32 µM | > 32 µM | 27.1 µM | > 32 µM |  | 
18 | Cc1ccc(NC(=O)CN2CCCCc3ccccc32)cc1S(=O)(=O)N1CCOCC1 [Compound Z1318043362] | 16 µM | 16.6 µM | > 32 µM | 25.4 µM | 4.78 | 

Row | Structure (SMILES) | IC50 [1] | IC50 [2] | CC50 [3] | IC50 [4] | L. Inf. pIC50 [2] | also measured
19 | CCOC(=O)c1c(C)[nH]c(C(=O)NNC(=O)c2cccc(S(=O)(=O)N(CC)CC)c2)c1C [Compound Z30581529] | > 32 µM | > 32 µM | > 32 µM | > 32 µM |  | 
20 | O=S(=O)(NC(CO)Cc1ccccc1)c1cc(F)ccc1F (stereo not drawn) [DNDI0003368459] |  |  |  |  |  | microsomal CLint at 0.5 μM [5]: 42 µL/min/mg; microsomal CLint at 0.5 μM [6]: 274 µL/min/mg; chromatographic logD [7]: 2.8; IC50 [8, 13]: > 64 µM; IC50 [8, 14]: > 64 µM; CC50 at 3 days [9]: > 64 µM; IC50 [10]: > 64 µM; Papp [11]: 10.6 ×10⁻⁶ cm/s; IC50 [12]: > 64 µM
21 | COc1ccc(S(=O)(=O)N(Cc2ccccc2C#N)Cc2ccccc2C#N)cc1OC [Compound Z220633250] | > 32 µM | 4.76 µM | > 32 µM | > 32 µM | 5.32 | 
22 | Cc1ccc(NC(=O)c2[nH]c(C)c(C(=O)OC(C)C)c2C)cc1S(=O)(=O)N1CCCCC1 [Compound Z51733284] | 16 µM | 10.2 µM | 3.11 µM | 16.2 µM | 4.99 | 
23 | COc1ccc(S(=O)(=O)N(C)C)cc1NC(=O)C1CCCc2ccccc21 (stereo not drawn) [Compound Z300980532] | > 32 µM | > 32 µM | > 32 µM | > 32 µM |  | 
24 | CCCCOc1cc(C)c(Cl)cc1S(=O)(=O)NCc1cccs1 [Compound Z1198037505] |  |  |  | 5.38 µM |  | SI (vs PMM) [1]: 41; L. Inf. pIC50 [2, 15]: 6.1
25 | COc1ccc(C#N)cc1S(=O)(=O)N(Cc1ccc(F)cc1)Cc1ccccn1 [DNDI0003370083] |  |  |  |  |  | microsomal CLint at 0.5 μM [5]: 694 µL/min/mg; microsomal CLint at 0.5 μM [6]: 1840 µL/min/mg; chromatographic logD [7]: 3.6; IC50 [8, 13]: 3.16 µM; IC50 [8, 14]: 3.19 µM; CC50 at 3 days [9]: > 64 µM; IC50 [10]: > 64 µM; Papp [11]: 11.9 ×10⁻⁶ cm/s; IC50 [12]: 28.9 µM
26 | COC(=O)c1c(C)[nH]c(C(=O)Nc2cccc(S(=O)(=O)N3CCCC3)c2)c1C [Compound Z30224758] | > 32 µM | > 32 µM | > 32 µM | > 32 µM |  | 
27 | CCN(CC)S(=O)(=O)c1cc(NC(=O)c2[nH]c(C)c(C(=O)OC)c2C)ccc1C [Compound Z26467494] | > 32 µM | 16.1 µM | 10.9 µM | 12 µM | 4.79 | 
28 | CN(Cc1ccccc1NCC(=O)Nc1cccc(S(=O)(=O)N(C)C)c1)C1CCCCC1 [Compound Z31013342] | > 32 µM | 21.5 µM | > 32 µM | > 32 µM | 4.67 | 
29 | CC1CCc2ccccc2N1CC(=O)N1CCCc2cc(S(=O)(=O)N(C)C)ccc21 (stereo not drawn) [Compound Z195652240] | > 32 µM | > 32 µM | > 32 µM | > 32 µM |  | 
30 | COc1ccc(OC)c(S(=O)(=O)N(Cc2ccc(F)cc2)Cc2ccccn2)c1 [DNDI0003368394] |  |  |  |  |  | microsomal CLint at 0.5 μM [5]: 151 µL/min/mg; microsomal CLint at 0.5 μM [6]: 344 µL/min/mg; chromatographic logD [7]: 2.7; IC50 [8, 13]: 0.977 µM; IC50 [8, 14]: 0.97 µM; CC50 at 3 days [9]: > 64 µM; IC50 [10]: > 64 µM; Papp [11]: 60.1 ×10⁻⁶ cm/s; IC50 [12]: 20.9 µM
31 | O=C(CN(Cc1ccccc1)S(=O)(=O)c1cc(F)ccc1F)c1ccc(F)cc1 [DNDI0003371157] |  |  |  |  |  | microsomal CLint at 0.5 μM [5]: 756 µL/min/mg; microsomal CLint at 0.5 μM [6]: 1380 µL/min/mg; chromatographic logD [7]: 4.6; IC50 [8, 13]: > 64 µM; IC50 [8, 14]: > 64 µM; CC50 at 3 days [9]: > 64 µM; IC50 [10]: > 64 µM; Papp [11]: 0.83 ×10⁻⁶ cm/s; IC50 [12]: > 64 µM
32 | COc1ccc(S(=O)(=O)N(Cc2cccc(F)c2)Cc2cccc(F)c2)cc1OC [Compound Z220633200] | > 32 µM | 10.1 µM | > 32 µM | 25.4 µM | 4.99 | 
33 | O=S(=O)(NCc1ccc(F)cc1)c1cccnc1NCCN1CCOCC1 [DNDI0003369121] |  |  |  |  |  | microsomal CLint at 0.5 μM [5]: 1850 µL/min/mg; microsomal CLint at 0.5 μM [6]: 1950 µL/min/mg; chromatographic logD [7]: 3.1; IC50 [8, 13]: > 64 µM; IC50 [8, 14]: > 64 µM; CC50 at 3 days [9]: > 64 µM; IC50 [10]: > 64 µM; Papp [11]: 1.85 ×10⁻⁶ cm/s; IC50 [12]: > 64 µM
34 | CNC(=O)NC(=O)COc1ccc(S(N)(=O)=O)cc1 [Compound Z381095182] | > 32 µM | > 32 µM | > 32 µM | > 32 µM |  | 
35 | CCCCCOc1cc(C)c(Cl)cc1S(=O)(=O)NCc1ccco1 [Compound Z1172171148] |  |  |  | 4.76 µM |  | SI (vs PMM) [1]: 30; L. Inf. pIC50 [2, 15]: 5.97
36 | CCCCOc1cc(C)c(Cl)cc1S(=O)(=O)NCc1cccnc1 [Compound Z969575790] |  |  |  | 25.4 µM |  | SI (vs PMM) [1]: 2; L. Inf. pIC50 [2, 15]: 4.78
